Key:
[1] = biological target: Serine/threonine-protein kinase DCLK1 (Homo sapiens) (UniProt O15075); conditions: Compound concentration 1000.0 nM
[2] = biological target: Protein kinase C delta type (Homo sapiens) (UniProt Q05655); conditions: Compound concentration 1000.0 nM
[3] = biological target: Tyrosine-protein kinase JAK1 (Homo sapiens) (UniProt P23458); conditions: Compound concentration 1000.0 nM
[4] = biological target: Ribosomal protein S6 kinase alpha-1 (Homo sapiens) (UniProt Q15418); conditions: Compound concentration 1000.0 nM
[5] = biological target: Tyrosine-protein kinase JAK3 (Homo sapiens) (UniProt P52333); conditions: Compound concentration 1000.0 nM
[6] = biological target: Epithelial discoidin domain-containing receptor 1 (Homo sapiens) (UniProt Q08345); conditions: Compound concentration 1000.0 nM
[7] = biological target: LIM domain kinase 2 (Homo sapiens) (UniProt P53671); conditions: Compound concentration 1000.0 nM
[8] = test system: Phosphatidylinositol 4,5-bisphosphate 3-kinase catalytic subunit alpha isoform (Homo sapiens), P42336 [H1047L]; conditions: Compound concentration 1000.0 nM
[9] = biological target: Casein kinase I isoform delta (Homo sapiens) (UniProt P48730); conditions: Compound concentration 1000.0 nM
[10] = biological target: MAP/microtubule affinity-regulating kinase 3 (Homo sapiens) (UniProt P27448); conditions: Compound concentration 1000.0 nM
[11] = biological target: Mitogen-activated protein kinase 9 (Homo sapiens) (UniProt P45984); conditions: Compound concentration 1000.0 nM
[12] = biological target: Beta-3 adrenergic receptor (Homo sapiens) (UniProt P13945); conditions: Compound concentration 10.0 uM
[13] = biological target: Inhibitor of nuclear factor kappa-B kinase subunit alpha (Homo sapiens) (UniProt O15111); conditions: Compound concentration 1000.0 nM
[14] = biological target: RAC-alpha serine/threonine-protein kinase (Homo sapiens) (UniProt P31749); conditions: Compound concentration 1000.0 nM
[15] = biological target: Mitogen-activated protein kinase kinase kinase 19 (Homo sapiens) (UniProt Q56UN5); conditions: Compound concentration 1000.0 nM
[16] = biological target: Calcium/calmodulin-dependent protein kinase type 1G (Homo sapiens) (UniProt Q96NX5); conditions: Compound concentration 1000.0 nM
[17] = biological target: Casein kinase II subunit alpha (Homo sapiens) (UniProt P68400); conditions: Compound concentration 1000.0 nM
[18] = biological target: Proto-oncogene tyrosine-protein kinase receptor Ret (Homo sapiens) (UniProt P07949); conditions: Compound concentration 1000.0 nM
[19] = biological target: Vascular endothelial growth factor receptor 3 (Homo sapiens) (UniProt P35916); conditions: Compound concentration 1000.0 nM
[20] = biological target: Kappa-type opioid receptor (Homo sapiens) (UniProt P41145); conditions: Compound concentration 10.0 uM
[21] = biological target: D(1B) dopamine receptor (Homo sapiens) (UniProt P21918); conditions: Compound concentration 10.0 uM
[22] = biological target: Sodium-dependent serotonin transporter (Homo sapiens) (UniProt P31645); conditions: Compound concentration 10.0 uM
[23] = biological target: Cytoplasmic tyrosine-protein kinase BMX (Homo sapiens) (UniProt P51813); conditions: Compound concentration 1000.0 nM
[24] = biological target: Serine/threonine-protein kinase 17B (Homo sapiens) (UniProt O94768); conditions: Compound concentration 1000.0 nM
[25] = biological target: Macrophage colony-stimulating factor 1 receptor (Homo sapiens) (UniProt P07333); conditions: Compound concentration 1000.0 nM
[26] = biological target: 5-hydroxytryptamine receptor 1E (Homo sapiens) (UniProt P28566); conditions: Compound concentration 10.0 uM
[27] = biological target: Dual specificity tyrosine-phosphorylation-regulated kinase 1B (Homo sapiens) (UniProt Q9Y463); conditions: Compound concentration 1000.0 nM
[28] = test system: Mast/stem cell growth factor receptor Kit (Homo sapiens), P10721 [V559D]; conditions: Compound concentration 1000.0 nM
[29] = biological target: Phosphatidylinositol 4,5-bisphosphate 3-kinase catalytic subunit beta isoform (Homo sapiens) (UniProt P42338); conditions: Compound concentration 1000.0 nM
[30] = test system: Receptor-type tyrosine-protein kinase FLT3 (Homo sapiens), P36888 [D835H]; conditions: Compound concentration 1000.0 nM
[31] = test system: Hepatocyte growth factor receptor (Homo sapiens), P08581 [M1250T]; conditions: Compound concentration 1000.0 nM
[32] = biological target: Receptor tyrosine-protein kinase erbB-4 (Homo sapiens) (UniProt Q15303); conditions: Compound concentration 1000.0 nM
[33] = biological target: Receptor-interacting serine/threonine-protein kinase 2 (Homo sapiens) (UniProt O43353); conditions: Compound concentration 1000.0 nM
[34] = biological target: Tyrosine-protein kinase receptor UFO (Homo sapiens) (UniProt P30530); conditions: Compound concentration 1000.0 nM
[35] = biological target: Tyrosine-protein kinase HCK (Homo sapiens) (UniProt P08631); conditions: Compound concentration 1000.0 nM
[36] = biological target: Mast/stem cell growth factor receptor Kit (Homo sapiens) (UniProt P10721); conditions: Compound concentration 1000.0 nM
[37] = biological target: Mitogen-activated protein kinase kinase kinase 13 (Homo sapiens) (UniProt O43283); conditions: Compound concentration 1000.0 nM
[38] = biological target: Serine/threonine-protein kinase 32C (Homo sapiens) (UniProt Q86UX6); conditions: Compound concentration 1000.0 nM
[39] = biological target: High affinity nerve growth factor receptor (Homo sapiens) (UniProt P04629); conditions: Compound concentration 1000.0 nM
[40] = biological target: Myosin-IIIb (Homo sapiens) (UniProt Q8WXR4); conditions: Compound concentration 1000.0 nM
[41] = biological target: Serine/threonine-protein kinase WNK3 (Homo sapiens) (UniProt Q9BYP7); conditions: Compound concentration 1000.0 nM
[42] = test system: Receptor-type tyrosine-protein kinase FLT3 (Homo sapiens), P36888 [UNDEFINED MUTATION]; conditions: Compound concentration 1000.0 nM
[43] = biological target: Tyrosine-protein kinase Fyn (Homo sapiens) (UniProt P06241); conditions: Compound concentration 1000.0 nM
[44] = biological target: Citron Rho-interacting kinase (Homo sapiens) (UniProt O14578); conditions: Compound concentration 1000.0 nM
[45] = biological target: BMP-2-inducible protein kinase (Homo sapiens) (UniProt Q9NSY1); conditions: Compound concentration 1000.0 nM

Sequence of Tyrosine-protein kinase JAK1 (Homo sapiens) (P23458 whole entry): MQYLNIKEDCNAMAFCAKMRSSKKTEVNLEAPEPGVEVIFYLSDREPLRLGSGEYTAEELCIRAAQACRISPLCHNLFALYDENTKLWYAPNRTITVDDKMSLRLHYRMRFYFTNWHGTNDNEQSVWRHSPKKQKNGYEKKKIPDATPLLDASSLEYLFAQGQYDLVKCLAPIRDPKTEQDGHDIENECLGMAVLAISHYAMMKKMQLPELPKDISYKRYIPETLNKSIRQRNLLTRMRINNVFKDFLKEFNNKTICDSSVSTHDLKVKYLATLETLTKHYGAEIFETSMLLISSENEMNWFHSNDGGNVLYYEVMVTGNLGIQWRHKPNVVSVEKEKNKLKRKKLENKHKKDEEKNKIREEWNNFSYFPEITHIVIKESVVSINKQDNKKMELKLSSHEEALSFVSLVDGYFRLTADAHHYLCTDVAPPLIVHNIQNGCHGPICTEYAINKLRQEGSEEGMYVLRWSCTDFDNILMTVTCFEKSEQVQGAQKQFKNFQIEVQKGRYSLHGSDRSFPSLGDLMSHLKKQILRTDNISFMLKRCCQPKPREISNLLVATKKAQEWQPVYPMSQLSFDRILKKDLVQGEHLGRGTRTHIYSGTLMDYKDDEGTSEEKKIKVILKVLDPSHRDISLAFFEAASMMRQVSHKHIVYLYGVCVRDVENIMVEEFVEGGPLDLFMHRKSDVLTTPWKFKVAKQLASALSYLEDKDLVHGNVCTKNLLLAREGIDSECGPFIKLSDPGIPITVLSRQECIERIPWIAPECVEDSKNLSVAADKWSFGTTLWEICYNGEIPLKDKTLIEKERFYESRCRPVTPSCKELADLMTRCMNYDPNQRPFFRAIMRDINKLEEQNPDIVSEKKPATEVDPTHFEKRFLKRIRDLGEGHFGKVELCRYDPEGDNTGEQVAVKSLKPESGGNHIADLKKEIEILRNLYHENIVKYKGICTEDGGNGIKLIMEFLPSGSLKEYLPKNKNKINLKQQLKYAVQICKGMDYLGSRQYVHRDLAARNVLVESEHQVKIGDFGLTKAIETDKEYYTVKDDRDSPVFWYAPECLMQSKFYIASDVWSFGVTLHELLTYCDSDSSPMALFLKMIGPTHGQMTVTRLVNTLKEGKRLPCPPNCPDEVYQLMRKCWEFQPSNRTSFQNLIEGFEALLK
Sequence of Mitogen-activated protein kinase kinase kinase 19 (Homo sapiens) (Q56UN5 whole entry): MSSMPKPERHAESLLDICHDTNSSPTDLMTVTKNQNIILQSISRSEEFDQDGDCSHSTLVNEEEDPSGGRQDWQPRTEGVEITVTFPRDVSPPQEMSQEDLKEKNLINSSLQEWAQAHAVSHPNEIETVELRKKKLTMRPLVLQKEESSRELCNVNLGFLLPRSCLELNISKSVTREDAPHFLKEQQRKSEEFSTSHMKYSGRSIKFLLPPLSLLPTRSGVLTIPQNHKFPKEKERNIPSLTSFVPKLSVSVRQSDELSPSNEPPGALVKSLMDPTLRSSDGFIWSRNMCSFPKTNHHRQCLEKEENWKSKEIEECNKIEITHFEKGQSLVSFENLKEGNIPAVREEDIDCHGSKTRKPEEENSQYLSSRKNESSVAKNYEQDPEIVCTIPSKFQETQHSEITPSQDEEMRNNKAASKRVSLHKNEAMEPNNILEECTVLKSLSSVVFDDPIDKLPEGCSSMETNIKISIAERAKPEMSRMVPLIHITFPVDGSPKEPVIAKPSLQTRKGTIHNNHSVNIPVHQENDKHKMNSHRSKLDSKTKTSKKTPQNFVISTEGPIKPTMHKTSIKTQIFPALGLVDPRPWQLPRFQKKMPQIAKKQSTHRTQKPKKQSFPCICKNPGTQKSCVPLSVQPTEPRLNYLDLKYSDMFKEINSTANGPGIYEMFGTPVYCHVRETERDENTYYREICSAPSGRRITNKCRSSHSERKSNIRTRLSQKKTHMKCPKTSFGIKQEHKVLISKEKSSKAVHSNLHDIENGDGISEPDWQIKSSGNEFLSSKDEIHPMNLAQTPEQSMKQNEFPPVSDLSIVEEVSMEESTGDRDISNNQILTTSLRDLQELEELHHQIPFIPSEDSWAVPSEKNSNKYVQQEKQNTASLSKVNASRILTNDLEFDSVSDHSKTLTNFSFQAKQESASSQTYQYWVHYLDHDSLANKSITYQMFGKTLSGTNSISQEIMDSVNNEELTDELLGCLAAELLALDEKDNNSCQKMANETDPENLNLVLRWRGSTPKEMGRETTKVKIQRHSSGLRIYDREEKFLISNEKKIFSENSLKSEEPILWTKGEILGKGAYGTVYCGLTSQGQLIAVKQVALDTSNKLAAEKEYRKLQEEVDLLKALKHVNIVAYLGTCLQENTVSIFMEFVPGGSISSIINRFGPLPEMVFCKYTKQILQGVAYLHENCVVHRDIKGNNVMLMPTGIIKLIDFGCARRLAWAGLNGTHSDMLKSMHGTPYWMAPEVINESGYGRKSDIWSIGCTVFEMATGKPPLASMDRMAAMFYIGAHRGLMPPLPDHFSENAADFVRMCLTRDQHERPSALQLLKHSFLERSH
Sequence of Protein kinase C delta type (Homo sapiens) (Q05655 whole entry, looked up): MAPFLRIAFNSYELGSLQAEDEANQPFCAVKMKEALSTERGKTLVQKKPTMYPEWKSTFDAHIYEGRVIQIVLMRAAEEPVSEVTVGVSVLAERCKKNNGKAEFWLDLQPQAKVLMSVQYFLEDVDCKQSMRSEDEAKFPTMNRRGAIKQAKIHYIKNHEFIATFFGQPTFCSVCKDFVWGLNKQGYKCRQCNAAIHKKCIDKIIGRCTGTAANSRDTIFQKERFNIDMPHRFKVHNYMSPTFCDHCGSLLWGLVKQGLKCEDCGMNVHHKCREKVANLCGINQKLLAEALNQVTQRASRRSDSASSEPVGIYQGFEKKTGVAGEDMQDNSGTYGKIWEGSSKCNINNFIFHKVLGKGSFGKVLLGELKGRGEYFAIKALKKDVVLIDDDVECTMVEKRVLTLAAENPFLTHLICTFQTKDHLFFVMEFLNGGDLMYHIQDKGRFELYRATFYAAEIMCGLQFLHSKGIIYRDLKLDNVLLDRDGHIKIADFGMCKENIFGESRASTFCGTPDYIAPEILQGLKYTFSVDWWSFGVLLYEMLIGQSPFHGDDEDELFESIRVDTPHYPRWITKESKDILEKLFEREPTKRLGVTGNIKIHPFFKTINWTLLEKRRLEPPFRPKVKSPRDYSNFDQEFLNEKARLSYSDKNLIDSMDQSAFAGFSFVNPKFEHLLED
Sequence of Receptor tyrosine-protein kinase erbB-4 (Homo sapiens) (Q15303 whole entry): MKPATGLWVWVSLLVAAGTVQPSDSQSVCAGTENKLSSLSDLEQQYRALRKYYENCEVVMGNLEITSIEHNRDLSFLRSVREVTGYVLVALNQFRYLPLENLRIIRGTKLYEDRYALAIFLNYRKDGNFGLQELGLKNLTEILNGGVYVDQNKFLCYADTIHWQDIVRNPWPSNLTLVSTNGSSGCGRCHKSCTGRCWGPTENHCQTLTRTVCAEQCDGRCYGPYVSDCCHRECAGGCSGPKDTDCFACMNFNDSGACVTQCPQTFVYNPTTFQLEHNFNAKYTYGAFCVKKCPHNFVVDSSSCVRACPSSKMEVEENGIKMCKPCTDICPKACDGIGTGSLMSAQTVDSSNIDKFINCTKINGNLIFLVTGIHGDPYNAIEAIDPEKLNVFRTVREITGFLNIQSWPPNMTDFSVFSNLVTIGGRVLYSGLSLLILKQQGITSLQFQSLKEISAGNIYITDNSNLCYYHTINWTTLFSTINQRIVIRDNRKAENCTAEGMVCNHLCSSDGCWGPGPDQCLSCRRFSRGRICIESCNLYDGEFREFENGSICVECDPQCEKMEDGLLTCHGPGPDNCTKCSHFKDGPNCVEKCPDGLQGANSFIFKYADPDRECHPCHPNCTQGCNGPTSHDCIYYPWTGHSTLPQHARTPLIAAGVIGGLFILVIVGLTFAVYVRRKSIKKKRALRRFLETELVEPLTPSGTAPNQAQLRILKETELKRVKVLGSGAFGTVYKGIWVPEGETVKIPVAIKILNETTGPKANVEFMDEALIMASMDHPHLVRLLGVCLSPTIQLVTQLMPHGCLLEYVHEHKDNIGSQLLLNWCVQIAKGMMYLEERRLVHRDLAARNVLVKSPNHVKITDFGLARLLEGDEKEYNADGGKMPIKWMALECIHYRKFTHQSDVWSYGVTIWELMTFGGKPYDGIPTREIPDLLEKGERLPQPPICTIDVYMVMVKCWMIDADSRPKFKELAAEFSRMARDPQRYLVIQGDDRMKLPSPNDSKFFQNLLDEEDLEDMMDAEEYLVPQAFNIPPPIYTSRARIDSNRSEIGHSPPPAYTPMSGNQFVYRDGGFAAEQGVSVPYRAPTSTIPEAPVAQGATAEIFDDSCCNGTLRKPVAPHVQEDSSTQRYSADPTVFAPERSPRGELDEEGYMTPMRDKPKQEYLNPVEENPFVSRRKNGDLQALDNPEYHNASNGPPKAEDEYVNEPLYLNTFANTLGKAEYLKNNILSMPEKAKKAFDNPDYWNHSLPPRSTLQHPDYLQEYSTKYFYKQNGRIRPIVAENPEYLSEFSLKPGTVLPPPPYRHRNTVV
Sequence of 5-hydroxytryptamine receptor 1E (Homo sapiens) (P28566 whole entry): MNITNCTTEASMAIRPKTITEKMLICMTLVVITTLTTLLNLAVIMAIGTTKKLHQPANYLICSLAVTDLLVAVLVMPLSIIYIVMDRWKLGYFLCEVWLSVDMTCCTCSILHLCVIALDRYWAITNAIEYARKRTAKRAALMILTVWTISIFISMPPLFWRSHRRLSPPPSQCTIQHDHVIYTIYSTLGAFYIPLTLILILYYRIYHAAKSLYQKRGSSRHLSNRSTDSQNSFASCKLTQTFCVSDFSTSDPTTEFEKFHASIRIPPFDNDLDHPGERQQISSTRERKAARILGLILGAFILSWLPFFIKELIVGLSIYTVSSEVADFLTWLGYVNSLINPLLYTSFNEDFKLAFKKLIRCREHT

CS(=O)(=O)NCC[C@H](NC(=O)c1cncc2c1cnn2-c1ccc(F)cc1)c1ccnc(S(C)(=O)=O)c1 [BI 9307]
inactive: residual activity [1] 94% | residual activity [2] 76% | residual activity [3] 100% | residual activity [4] 100% | residual activity [5] 100% | residual activity [6] 92% | residual activity [7] 100% | residual activity [8] 77% | residual activity [9] 100% | residual activity [10] 92% | residual activity [11] 86% | inhibition [12] -5.01% | residual activity [13] 100% | residual activity [14] 100% | residual activity [15] 98% | residual activity [16] 100% | residual activity [17] 100% | residual activity [18] 91% | residual activity [19] 100% | inhibition [20] 0.74% | inhibition [21] 36% | inhibition [22] -7.52% | residual activity [23] 100% | residual activity [24] 100% | residual activity [25] 100% | inhibition [26] 8.79% | residual activity [27] 100% | residual activity [28] 100% | residual activity [29] 93% | residual activity [30] 100% | residual activity [31] 88% | residual activity [32] 95% | residual activity [33] 100% | residual activity [34] 95% | residual activity [35] 100% | residual activity [36] 100% | residual activity [37] 100% | residual activity [38] 100% | residual activity [39] 97% | residual activity [40] 100% | residual activity [41] 100% | residual activity [42] 92% | residual activity [43] 100% | residual activity [44] 73% | residual activity [45] 92%

CS(=O)(=O)c1cc(C2(NC(=O)c3cncc4c3cnn4-c3ccc(F)cc3)CC2)ccn1 [BI 639667]
inactive: residual activity [1] 75% | residual activity [2] 100% | residual activity [3] 83% | residual activity [4] 77% | residual activity [5] 75% | residual activity [6] 100% | residual activity [7] 100% | residual activity [8] 100% | residual activity [9] 99% | residual activity [10] 100% | residual activity [11] 100% | inhibition [12] -5.91% | residual activity [13] 100% | residual activity [14] 100% | residual activity [15] 91% | residual activity [16] 100% | residual activity [17] 64% | residual activity [18] 100% | residual activity [19] 100% | inhibition [20] 1.68% | inhibition [21] -0.37% | inhibition [22] -2.94% | residual activity [23] 100% | residual activity [24] 83% | residual activity [25] 79% | inhibition [26] 14.8% | residual activity [27] 74% | residual activity [28] 100% | residual activity [29] 100% | residual activity [30] 100% | residual activity [31] 82% | residual activity [32] 100% | residual activity [33] 53% | residual activity [34] 100% | residual activity [35] 100% | residual activity [36] 100% | residual activity [37] 76% | residual activity [38] 81% | residual activity [39] 96% | residual activity [40] 100% | residual activity [41] 100% | residual activity [42] 100% | residual activity [43] 55% | residual activity [44] 100% | residual activity [45] 89%

— ChEMBL document CHEMBL4507278 (2021)
